Results from patent US6974799B2, “Compositions containing mixtures of tetrapeptides and tripeptides” (Sederma S.A.S., priority 2003, dated 2005).
No end group written: not given here. *: point of attachment. Oleoyl = CCCCCCCC/C=C\CCCCCCCC(=O)*; Palmitoyl = CCCCCCCCCCCCCCCC(=O)*

What was measured:
[1] = test system: Collagen I; experiment: Collagen I in supernatant of normal human skin fibroblasts, Elisa; assay type: cell-based; conditions: for Collagen I: Percentage of variation with respect to solvent: 3 × 10E−4% ascorbic acid, 3 days; for collagen I stimulation (in words): alone or in combination; for collagen I stimulation (in words) / effect on biomolecule synthesis under these experimental conditions (in words): Table 1 conditions
Protocol: In generating the data in Table 1, normal human skin fibroblasts were cultivated in 24 well-plates in DMEM with 10% of Fetal Calf Serum (“FCS”) during 24 h, then rinsed. The cells then received the products to be tested in a medium DMEM without FCS (“Fetal Calf Serum”) containing ascorbic acid. The contact of cells with product was carried out during 3 days, then supernatants was taken and frozen. Each test includes a negative control without solvent, a control solvent and a positive control (10^−6% of Transforming Growth Factor-β (“TGF-β”)). Each determination was carried out n=3. Several repetitions independent of the tests can be made. Assaying of the interesting molecules was carried out by Elisa (Collagen I & IV; Fibronectine) or by a colorimetric method (hyaluronic acid).
(§1) Normal human skin fibroblasts are cultivated in 24 well-plates in DMEM with 10% of FCS during 24 h, then rinsed. The cells then received the products to be tested in a medium DMEM without FCS containing ascorbic acid. The contact of cells with product was carried out during 3 days, then supernatants are taken and frozen. Each test included a negative control without solvent, a control solvent and a positive control (10^E-6% of TGF-β). Each determination was carried out n=3. Several repetitions independent of the tests were made. Assaying of the interesting molecules was carried out by Elisa (Collagen I & IV; Fibronectine) and by a calorimetric method (hyaluronic acid).

[2] = test system: Fibronectin; experiment: Fibronectin in supernatant of normal human skin fibroblasts, Elisa; assay type: cell-based; conditions: 3 × 10E−4% ascorbic acid, 3 days
Protocol: (§2) In generating the data in Table 1, normal human skin fibroblasts were cultivated in 24 well-plates in DMEM with 10% of Fetal Calf Serum (“FCS”) during 24 h, then rinsed. The cells then received the products to be tested in a medium DMEM without FCS (“Fetal Calf Serum”) containing ascorbic acid. The contact of cells with product was carried out during 3 days, then supernatants was taken and frozen. Each test includes a negative control without solvent, a control solvent and a positive control (10^−6% of Transforming Growth Factor-β (“TGF-β”)). Each determination was carried out n=3. Several repetitions independent of the tests can be made. Assaying of the interesting molecules was carried out by Elisa (Collagen I & IV; Fibronectine) or by a colorimetric method (hyaluronic acid). […] Higher concentrations were not tested because of cytotoxicity, and the other biomolecules were not assayed (n.t.=not tested) because of the lack of initial response in collagen I stimulation, which is the essential, primary parameter.
as §1

[3] = test system: Collagen IV; experiment: Collagen IV in supernatant of normal human skin fibroblasts, Elisa; assay type: cell-based; conditions: 3 × 10E−4% ascorbic acid, 3 days
Protocol: as §2, §1

[4] = test system: Hyaluronic Acid; experiment: Hyaluronic acid in supernatant of normal human skin fibroblasts, colorimetric method; assay type: cell-based; conditions: 3 × 10E−4% ascorbic acid, 3 days
Protocol: as §2, §1

[5] = test system: collagen; experiment: Increase in synthesis of collagen (in vitro), fibroblasts of human skin, ELISA; assay type: cell-based; conditions: 72 hours
Protocol: Fibroblasts of human skin are incubated for 72 hours in two culture mediums enriched in vitamin C (1.5 and 15 ppm), in the presence of the peptide N-palmitoyl-Gly-Gln-Pro-Arg (SEQ ID NO: 3) at two different concentrations, 2.5 ppm and 3.6 ppm. After this incubation, the media is collected and cell viability is evaluated by MTT assay. The measurement of collagen is then carried out by ELISA in each cell lysate. Tests were done in triplicate.
In parallel, negative controls should be carried out under the same conditions, but in the absence of the peptides.
The following results, shown in Table 2, give the increase of collagen synthesis compared to the results obtained in the blank tests (without peptide): […]

[6] = test system: collagen; conditions: background statement on EYELISS components; cited from earlier work

Substance: Acetyl-YGG
- Collagen I: Percentage of variation with respect to solvent ([1]; 1 ppm): −2%
- Collagen I: Percentage of variation with respect to solvent ([1]; 3 ppm): +5%
- Collagen I: Percentage of variation with respect to solvent ([1]; 5 ppm): −11%
- collagen I stimulation (in words) [1]: do not show collagen I stimulation

Substance: N-Palmitoyl-Gly-Gln-Pro-Arg (Palmitoyl-GQPR) [Pal GQPR, 500 ppm solution sold as RIGIN by SEDERMA]
- Collagen I: Percentage of variation with respect to solvent ([1]; 0.5 ppm): +4%
- Collagen I: Percentage of variation with respect to solvent ([1]; 1.5 ppm): −1%
- Collagen I: Percentage of variation with respect to solvent ([1]; 2.5 ppm): +19%
- Collagen I: Percentage of variation with respect to solvent ([1]; 2.5 ppm, listed as N-Palmitoyl-Gly-Gln-Pro-Arg): +19%
- Collagen I: Percentage of variation with respect to solvent ([1]; 3.64 ppm): +65%
- Collagen I: Percentage of variation with respect to solvent ([1]; 3.64 ppm, listed as tetrapeptide): +65%
- effect on biomolecule synthesis under these experimental conditions (in words) [1]: stimulating effect
- Fibronectin: Percentage of variation with respect to solvent ([2]; 0.5 ppm): +1%
- Fibronectin: Percentage of variation with respect to solvent ([2]; 1.5 ppm): +15%
- Fibronectin: Percentage of variation with respect to solvent ([2]; 2.5 ppm): +35%
- Fibronectin: Percentage of variation with respect to solvent ([2]; 3.64 ppm): +56%
- Collagen IV: Percentage of variation with respect to solvent ([3]; 0.5 ppm): +5%
- Collagen IV: Percentage of variation with respect to solvent ([3]; 1.5 ppm): −8%
- Collagen IV: Percentage of variation with respect to solvent ([3]; 2.5 ppm): −5%
- Collagen IV: Percentage of variation with respect to solvent ([3]; 3.64 ppm): −14%
- Hyaluronic Acid: Percentage of variation with respect to solvent ([4]; 0.5 ppm): −4%
- Hyaluronic Acid: Percentage of variation with respect to solvent ([4]; 1.5 ppm): +9%
- Hyaluronic Acid: Percentage of variation with respect to solvent ([4]; 2.5 ppm): −13%
- Hyaluronic Acid: Percentage of variation with respect to solvent ([4]; 3.64 ppm): −1%
- increase of collagen synthesis compared to blank tests (without peptide) ([5]; peptide 2.5 ppm, Vitamin C 1.5 ppm): +10%
- increase of collagen synthesis compared to blank tests (without peptide) ([5]; peptide 2.5 ppm, Vitamin C 15 ppm): +27%
- increase of collagen synthesis compared to blank tests (without peptide) ([5]; peptide 3.6 ppm, Vitamin C 1.5 ppm): +29%
- increase of collagen synthesis compared to blank tests (without peptide) ([5]; peptide 3.6 ppm, Vitamin C 15 ppm): +42%

Substance: N-Palmitoyl-Gly-His-Lys [Pal GHK]
- Collagen I: Percentage of variation with respect to solvent ([1]; 1 ppm): +9%
- Collagen I: Percentage of variation with respect to solvent ([1]; 3 ppm): −11%
- Collagen I: Percentage of variation with respect to solvent ([1]; 5 ppm): +11%
- Collagen I: Percentage of variation with respect to solvent ([1]; 5 ppm, listed as N-Palmitoyl-Gly-His-Lys): +11%
- Collagen I: Percentage of variation with respect to solvent ([1]; 7.3 ppm): −9%
- Collagen I: Percentage of variation with respect to solvent ([1]; 7.3 ppm, listed as tripeptide): reduction in synthesis
- effect on biomolecule synthesis under these experimental conditions (in words) [1]: essentially no effect
- Fibronectin: Percentage of variation with respect to solvent ([2]; 1 ppm): +8%
- Fibronectin: Percentage of variation with respect to solvent ([2]; 3 ppm): +2%
- Fibronectin: Percentage of variation with respect to solvent ([2]; 5 ppm): −15%
- Fibronectin: Percentage of variation with respect to solvent ([2]; 7.3 ppm): +13%
- Collagen IV: Percentage of variation with respect to solvent ([3]; 1 ppm): +5%
- Collagen IV: Percentage of variation with respect to solvent ([3]; 3 ppm): −4%
- Collagen IV: Percentage of variation with respect to solvent ([3]; 5 ppm): +6%
- Collagen IV: Percentage of variation with respect to solvent ([3]; 7.3 ppm): −9%
- Hyaluronic Acid: Percentage of variation with respect to solvent ([4]; 1 ppm): +3%
- Hyaluronic Acid: Percentage of variation with respect to solvent ([4]; 3 ppm): +11%
- Hyaluronic Acid: Percentage of variation with respect to solvent ([4]; 5 ppm): 0%
- Hyaluronic Acid: Percentage of variation with respect to solvent ([4]; 7.3 ppm): −1%

Substance: N-Palmitoyl-Lys-Thr-Thr-Lys-Ser (Palmitoyl-KTTKS) [Pal KTTKS, commercially successful pentapeptide, MATRIXYL, available from SEDERMA, reference compound]
- Collagen I: Percentage of variation with respect to solvent ([1]; 1 ppm): +8%
- Collagen I: Percentage of variation with respect to solvent ([1]; 2 ppm): +30%
- Collagen I: Percentage of variation with respect to solvent ([1]; 4 ppm): +48%
- Collagen I: Percentage of variation with respect to solvent ([1]; 8 ppm): +93%
- Fibronectin: Percentage of variation with respect to solvent ([2]; 1 ppm): +24%
- Fibronectin: Percentage of variation with respect to solvent ([2]; 2 ppm): +20%
- Fibronectin: Percentage of variation with respect to solvent ([2]; 4 ppm): +74%
- Fibronectin: Percentage of variation with respect to solvent ([2]; 8 ppm): +100%
- Collagen IV: Percentage of variation with respect to solvent ([3]; 1 ppm): +6%
- Collagen IV: Percentage of variation with respect to solvent ([3]; 2 ppm): +12%
- Collagen IV: Percentage of variation with respect to solvent ([3]; 4 ppm): +15%
- Collagen IV: Percentage of variation with respect to solvent ([3]; 8 ppm): +22%
- Hyaluronic Acid: Percentage of variation with respect to solvent ([4]; 1 ppm): +3%
- Hyaluronic Acid: Percentage of variation with respect to solvent ([4]; 2 ppm): +26%
- Hyaluronic Acid: Percentage of variation with respect to solvent ([4]; 4 ppm): +28%
- Hyaluronic Acid: Percentage of variation with respect to solvent ([4]; 8 ppm): +31%

Substance: Oleoyl-RGD
- Collagen I: Percentage of variation with respect to solvent ([1]; 1 ppm): +5%
- Collagen I: Percentage of variation with respect to solvent ([1]; 3 ppm): −3%
- collagen I stimulation (in words) [1]: do not show collagen I stimulation

Substance: Oleoyl-RGDS [oleoyl derivative of RGDS=Arg-Gly-Asp-Ser]
- Collagen I: Percentage of variation with respect to solvent ([1]; 1 ppm): −7%
- Collagen I: Percentage of variation with respect to solvent ([1]; 3 ppm): −2%
- collagen I stimulation (in words) [1]: do not show collagen I stimulation

Substance: Pal-YGGF (Palmitoyl-YGGF) [palmitoyl derivative of YGGF=Tyr-Gly-Gly-Phe, fragment of enkephaline]
- Collagen I: Percentage of variation with respect to solvent ([1]; 1 ppm): +5%
- Collagen I: Percentage of variation with respect to solvent ([1]; 3 ppm): −6%
- Collagen I: Percentage of variation with respect to solvent ([1]; 5 ppm): +4%
- collagen I stimulation (in words) [1]: do not show collagen I stimulation

Substance: Transforming Growth Factor-β [TGF-β, reference compound]
- Fibronectin: Percentage of variation with respect to solvent ([2]; 10^E−6%): +176%
- Collagen IV: Percentage of variation with respect to solvent ([3]; 10^E−6%): +4%
- Hyaluronic Acid: Percentage of variation with respect to solvent ([4]; 10^E−6%): +43%

Substance: Val-Trp
- collagen stimulating activity (in words) [6]: no significant collagen stimulating activity
